In general, IC50 refers to the point on the concentration scale where inhibition reaches its midpoint.

The structures appear in SMILES notation. Like-named read-outs stand apart in the source and are kept apart here.

This note sets out measurements from US6541468B1, “Indolocarbazole derivatives useful for the treatment of neurodegenerative diseases and cancer” (Bayer Corporation, priority 1998, dated 2003).

The test system of assay [1] is T1, PKC.
T1 construct: PKC was purified from rat brain using the method of Woodgett J. R. and Hunter T., J. Biol. Chem 262, 4836-4843 (1987)
Briefly: PKC inhibition assay. It counts as biochemical, rat. As to conditions: footnote a) on the CII value: partial inhibition only. Here is the method:
Preparation of PKC: PKC was purified from rat brain using the method of Woodgett J. R. and Hunter T., J. Biol. Chem 262, 4836-4843 (1987).
PKC was assayed in 50μ 25 mM HEPES, pH 7.0, 10 mM MgCl2, 2 mM CaCl2, 1 mM EDTA, 1 mM DTT, 0.25 mM ATP, 0.2 mg/mL phosphatidylserine, using 20 ng PKC and 0.08 mg/mL histone III-S as a substrate.
Enzyme, substrate and inhibitor were preincubated for 5-10 min at 4° C. in assay buffers containing a final concentration of 2% DMSO before initiating the reaction with 0.25 mM γ^2P-ATP. Samples were incubated for 30 min at 37° C. and reactions were terminated with 10% trichloracetic acid/2% sodium pyrophosphate (TCA/PPA), followed by filtration over a glass fiber filtermat (type A) with a cell harvester (Tomtec). The filtermats were washed twice for several hours with TCA/PPA until all background radioactivity was removed. Precipitable counts were quantitated directly on the filtermat with a microbeta scintillation counter system (Wallac-Pharmacia). Inhibitor data were subjected to curve fitting and IC50 values were calculated from these curves using the GraphIt program.

In assay [2] the test system is tau hyperphosphorylation. Briefly: Okadaic acid induced AD-like tau hyperphosphorylation in rat hippocampal brain slices. It counts as cell-based. The procedure:
Adult male Long-Evans rats were subjected to CO2 anesthesia and sacrificed by decapitation. Brains were rapidly removed (<2 min) and whole hippocampus was dissected using a blunt spatula. Hippocampi were cut into […] slices using a Mcllwain tissue chopper and placed into ice cold low Ca^2+ Krebs-Bicarbonate buffer (pH 7.) of the following composition in mM: NaCl, 124; KCL, 3.33; CaCl2, 0.01; KH2PO4, 1.25; MgSO4, 1.33; nAhco3, 25.7; D-glucose, 10; HEPES, 20. The slices were separated and placed, 5-8 per tube, into 5 mL of low Ca^2+ buffer and incubated for at least 30 min at 33-34° C. with water saturated oxygenation (95% O2, 5% CO2). After 30 min the solution was replaced with buffer containing a physiological level of Ca^2+ (1.3 mM) and incubated for an additional 30 min.
After a total equilibration period of at least 1 hr, the slices were pretreated with vehicle or inhibitor at concentrations ranging from 30 nM to 10 μM for 1 hr, and then exposed to either vehicle or okadaic acid fora 90 min. After treatment, the buffer was removed and the slices were sonicated for 10-20 see in 500 μl of homogenization buffer (100 mM KH2PO4, pH 6.5, 2 mM EGTA, 2 mM EDTA, 1 μM okadaic acid and the following protease inhibitors: aprotinin (10 μg/ml); leupeptin (10 μM); chymostatin (40 μM); PMSF (100 μM) and pepstatin (6 μg/ml).
Following sonication, the samples were centrifuged 16,000×g for 30 min and the supernatants were removed. After boiling of the supernatants for 5 mn at 100° C. the concentration of protein was determined by the BCA assay (Pierce) using BSA as standard and samples were normalized to equal protein concentration.
Aliquots of the heat stable supernatants were separated on 10% SDS-PAGE and Western-blotted with phosphorylation-sensitive tau mAb Tau-1 and PHF-tau mAb AT8 as described for SY5Y studies. Blots were developed by an ECL kit (Amersham Life Science). AT8 immunoreactivity was quantitated on Kodak X0OMAT AR film using a Biorad imaging densitometer GS 670, the strongest signals not exceeding an O.D. of 12.

The mark [3] stands for this setting: adult rat hippocampal slices, means of triplicate determinations, read-out: Inhibition of tau hyperphos. in brain slices IC50.

Take `CNC(=O)[C@]1(O)CC2CC1n1c3ccccc3c3c4c(c5c6ccccc6n2c5c31)C(=O)NC4=O` (stereo partly drawn) [CII, 9,12-Methano-1H-diindolo[1,2,3-fg:3′,2′,1′-kl]pyrrolo[3,4-I][1,6] benzodiazocine-10-carboxamide, 2,3,9,10,11,12-hexahydro-10-hydroxy-N-methyl-1,3-dioxo-(9α,10β,12α)]: the concentration for half-maximal inhibition (IC50) turned out to be 650 nM in assay [1]; 100 nM in assay [2] (adult rat hippocampal brain slices, FIG. 5, read-out: IC50 for prevention of tau hyperphosphorylation in brain slices); 180 nM in assay [2] (setting [3]).
`COC(=O)[C@@]1(O)C[C@H]2C[C@@H]1n1c3ccccc3c3c4c(c5c6ccccc6n2c5c31)C(=O)NC4=O` (relative stereo) [CIII, 9,12-Methano-1H-diindolo[1,2,3-fg:3′,2′,1′-kl]pyrrolo[3,4-I][1,6] benzodiazocine-10-carboxylic acid, 2,3,9,10,11,12-hexahydro-10-hydroxy-1,3-dioxomethyl ester, (9α,10β,12α)]: the concentration for half-maximal inhibition (IC50) in assay [1] was more than 100000 nM; in assay [2] (setting [3]) it was 900 nM.
